Measured values from patent publication US11154566B2, “Composition for preventing hair loss or promoting hair growth” (CK BIOTECH, priority 2017, dated 2021).
≈ marks a conversion by molar mass, not a printed value.

Assay: Solubility of indirubin derivative in oils and surfactants (LC/MS/MS)
Format: physicochemical
Details: thermodynamic from solid, 72 hours at 37° C.
Experimental: To determine emulsion solution, solubility of indirubin derivative, embodiment 2 is measured in the several oil and surfactants. After enough amount of indirubin derivative powder made from manufacturing example 2 is putted into each oil or surfactants (1 ml), it was into vortexing 30 min. The equilibrium state was reached by shaking for 72 hours at 37° C. with 50 rpm speed in an incubator, then centrifuged at 16,100×g for 5 min. The supernatant was diluted with methanol and analyzed by LC/MS/MS. The kind of above oil or surfactants and measured solubility are shown below table 1.
‘Waters xevo TQ MS-ACQUITY UPLC System’ is used as an analyses equipment. ACQUITY UPLC® BEH (C18, 1.7 μm, 2.1×50 mm) column was used for analyses at room temperature. Mobile phase is used after filtration of deionized distilled water including 0.1% formic acid and acetonitrile including 0.1% formic acid (30:70, v/v) with […] membrane filter. The flow rate is 0.25 ml/min and it is analyzed by injection of 0.5 μl sample. There are LC/MS/MS conditions for Decursin analysis; Cone 38 V, Collison 32 V. Precursor ion and daughter ion are monitored 329 and 229 m/z, respectively.

- solubility at 72 h (aqueous with cosolvent or surfactant or cyclodextrin, in Kolliphor EL): 5.4 mg/mL (≈ 15 mM)
- solubility at 72 h (aqueous with cosolvent or surfactant or cyclodextrin, in Tween 20): 4.58 mg/mL (≈ 12.7 mM)
- solubility at 72 h (aqueous with cosolvent or surfactant or cyclodextrin, in Tween 80): 4.92 mg/mL (≈ 13.7 mM)
- solubility at 72 h (oil or lipid, in Olive oil): 0.83 mg/mL (≈ 2.3 mM)
- solubility at 72 h (oil or lipid, in Sunflower oil): 1.35 mg/mL (≈ 3.75 mM)
- solubility at 72 h (organic solvent or mixture, in PEG 400): 3.1 mg/mL (≈ 8.61 mM)
- solubility at 72 h (organic solvent or mixture, in Propylene glycol): 0.25 mg/mL (≈ 0.694 mM)
- solubility at 72 h (organic solvent or mixture, in Transcutor P): 1.15 mg/mL (≈ 3.19 mM)
Structure (SMILES): CO/N=C1/C(=C2/C(=O)Nc3cc(Cl)c(Cl)cc32)Nc2ccccc21 [Embodiment A3051, 5,6-dichloroindirubin-3′-methoxime]
